{
  "source": "paper PMC12040169",
  "about": "(PLOS Biology, 2025)",
  "data": [
    {"experiment": "in vitro", "conditions": "human, hela cells, % viability", "units": {"viability at 28.5 h, 10 µM": "%"}, "values": [
      {"smiles": "O=[N+]([O-])c1ccc(/C=N/n2c(S)nnc2COc2ccccc2)cc1", "note": "[CBK265240]", "viability at 28.5 h, 10 µM": 91.5},
      {"smiles": "Cc1ccc(-c2nnc(N3CCN(S(=O)(=O)c4ccc(Cl)cc4)CC3)c3ccccc23)cc1", "note": "[CBK266759]", "viability at 28.5 h, 10 µM": 96.1},
      {"smiles": "CCCn1cc(NC(=O)NC(C)(CC)CO)ccc1=O", "note": "(stereo not shown) [CBK304864]", "viability at 28.5 h, 10 µM": 88.7},
      {"smiles": "CCn1c(C)nc2cc(C(=O)NC3CCCOC3)ccc21", "note": "(stereo not shown) [CBK282066]", "viability at 28.5 h, 10 µM": 92.5},
      {"smiles": "COc1ccc(OC)c2c1cc(C(=O)NC[C@H]1CC[C@H](C(=O)O)CC1)n2C", "note": "[CBK286636]", "viability at 28.5 h, 10 µM": 86.1},
      {"smiles": "COc1cccc(-c2cc(C(=O)Nc3nnn[nH]3)c3ccccc3n2)c1", "note": "[CBK262640]", "viability at 28.5 h, 10 µM": 98.6},
      {"smiles": "Cc1ccc(C(NC(=O)CC(C)C)c2ccc3cccnc3c2O)cc1", "note": "(stereo not shown) [CBK293943]", "viability at 28.5 h, 10 µM": 89.3},
      {"smiles": "COc1ccnc(NC(c2cnn(C)c2)[C@H]2C[C@@H](O)C2)n1", "note": "(stereo partly shown) [CBK306617]", "viability at 28.5 h, 10 µM": 97.8},
      {"smiles": "COc1ccc(OCCn2c(C(C)O)nc3ccccc32)cc1", "note": "(stereo not shown) [CBK269905]", "viability at 28.5 h, 10 µM": 93.2},
      {"smiles": "C=Cn1cc(CN2CCCN(Cc3cccc(F)c3)CC2)c(C)n1", "note": "[CBK282594]", "viability at 28.5 h, 10 µM": 98.7},
      {"smiles": "Cc1cc(C)cc(C(O)CNC2CCN(Cc3cscn3)CC2)c1", "note": "(stereo not shown) [CBK304457]", "viability at 28.5 h, 10 µM": 94.4},
      {"smiles": "CN(C/C=C/c1ccccc1[N+](=O)[O-])CCc1ccccn1", "note": "[CBK261890]", "viability at 28.5 h, 10 µM": 92.5},
      {"smiles": "O=C(C1COc2ccccc2O1)N1CCC(Cn2cncn2)(C2CCCCC2)CC1", "note": "(stereo not shown) [CBK136792]", "viability at 28.5 h, 10 µM": 102},
      {"smiles": "COc1cc(/C=N/NC(=O)CCc2c(C)n[nH]c2C)ccc1O", "note": "[CBK262925]", "viability at 28.5 h, 10 µM": 90.1},
      {"smiles": "CC(C)(CO)CNc1nc(-c2ccc(F)c(Cl)c2)cnc1N", "note": "[CBK063484]", "viability at 28.5 h, 10 µM": 102},
      {"smiles": "CC(C)c1csc(NC(=O)CC2CCN(S(=O)(=O)c3cccc(F)c3)CC2)n1", "note": "[CBK285902]", "viability at 28.5 h, 10 µM": 83.4},
      {"smiles": "CS(=O)(=O)N1C2CCC(C2)[C@H]1COc1ccc(F)cc1", "note": "(stereo partly shown) [CBK285279]", "viability at 28.5 h, 10 µM": 108},
      {"smiles": "COc1ccc2cc(C(=O)NC3CCCN(C)C3)n(C)c2c1", "note": "(stereo not shown) [CBK282541]", "viability at 28.5 h, 10 µM": 85.1},
      {"smiles": "Cc1ccc(CN(CCCn2ccnc2)Cc2ccccc2O)s1", "note": "[CBK283135]", "viability at 28.5 h, 10 µM": 103},
      {"smiles": "COC(=O)[C@H]1CN(C(=O)C2CC(=O)N(C)C2)C[C@@H]1c1ccccc1F", "note": "(stereo partly shown) [CBK285470]", "viability at 28.5 h, 10 µM": 94.7},
      {"smiles": "c1cnc(N2CCCC2)c(OC2CCCNC2)n1", "note": "(stereo not shown) [CBK115283]", "viability at 28.5 h, 10 µM": 90.2},
      {"smiles": "CCOC(=O)C1CCN(C(=O)Nc2cc(C)on2)CC1", "note": "[CBK306280]", "viability at 28.5 h, 10 µM": 88.5},
      {"smiles": "CC(=O)N1CCC(C(=O)Nc2cnc(-c3ccc(F)cc3)c(-c3ccco3)n2)CC1", "note": "[CBK037038]", "viability at 28.5 h, 10 µM": 104},
      {"smiles": "O=C(O)c1c2c(nc3ccccc13)CCN(Cc1ccccc1)C2", "note": "[CBK286805]", "viability at 28.5 h, 10 µM": 87.4},
      {"smiles": "Cc1cccc(CN2CCC[C@@H]3CN(C(=O)CC(C)C)C[C@@H]32)n1", "note": "[CBK285291]", "viability at 28.5 h, 10 µM": 108},
      {"smiles": "O=C1CC(c2cccnc2)=NN1c1ccc(Cl)cc1Cl", "note": "[CBK067764]", "viability at 28.5 h, 10 µM": 97.7},
      {"smiles": "CSc1nc(N)nc(SC(C(=O)O)c2ccccc2)c1C#N", "note": "(stereo not shown) [CBK267461]", "viability at 28.5 h, 10 µM": 93.4},
      {"smiles": "CCc1[nH]c2ccc(C(=O)NC3CCCOC3)cc2c1C", "note": "(stereo not shown) [CBK283247]", "viability at 28.5 h, 10 µM": 95.9},
      {"smiles": "OC(CN1CCC(O)(c2ccccc2F)CC1)c1ccc(F)cc1", "note": "(stereo not shown) [CBK282492]", "viability at 28.5 h, 10 µM": 87.2},
      {"smiles": "CN(C)C(=O)c1cc(Br)cnc1NCCCn1ccnc1", "note": "[CBK076378]", "viability at 28.5 h, 10 µM": 98},
      {"smiles": "CSc1[nH]nc(N)c1-c1ccc([N+](=O)[O-])cc1", "note": "[CBK016751]", "viability at 28.5 h, 10 µM": 88},
      {"smiles": "O=C(O)C12CC3CC(C(=O)O)(C1)CC(C(=O)O)(C3)C2", "note": "[CBK263442]", "viability at 28.5 h, 10 µM": 84.4},
      {"smiles": "CN1C(=O)c2ccccc2OCCCCC[C@H]2[C@@H]1CCCN2C(=O)CN1CCN(CCO)CC1", "note": "[CBK292144]", "viability at 28.5 h, 10 µM": 99},
      {"smiles": "CCOC(=O)c1cc2cc(NC(=O)N(CCO)C3CC3)ccc2s1", "note": "[CBK306007]", "viability at 28.5 h, 10 µM": 87.6},
      {"smiles": "Cc1ccccc1-c1ccccc1CC1(C(=O)N(C)C)CCN(C(=O)CC(C)(C)C)CC1", "note": "[CBK285715]", "viability at 28.5 h, 10 µM": 95.1},
      {"smiles": "C#CCNC(=O)CC[C@H]1CNC(=O)[C@@H]2[C@@H](CCN2Cc2ccc(C)cc2)N1C", "note": "[CBK289036]", "viability at 28.5 h, 10 µM": 101},
      {"smiles": "COc1cc(CNC2CCCCCC2)c([N+](=O)[O-])cc1OC", "note": "[CBK262194]", "viability at 28.5 h, 10 µM": 96.4},
      {"smiles": "CCOC(=O)C1CCCN(Cc2nc3cc(Cl)ccc3c(=O)[nH]2)C1", "note": "(stereo not shown) [CBK306198]", "viability at 28.5 h, 10 µM": 86.9},
      {"smiles": "CCn1c(=O)n(CC(=O)NCCc2ccccc2)c2cccnc21", "note": "[CBK283812]", "viability at 28.5 h, 10 µM": 76.1},
      {"smiles": "OC1(c2cccnc2F)CCN(Cc2ccc(F)cc2F)CC1", "note": "[CBK284369]", "viability at 28.5 h, 10 µM": 82.6},
      {"smiles": "CC1CC1C(=O)N1C2CCC1CC(O)(Cn1ccc3ccncc31)C2", "note": "(stereo not shown) [CBK284653]", "viability at 28.5 h, 10 µM": 85.6},
      {"smiles": "CCc1cc(CNC(=O)C2CC3C=CC2C32CC2)on1", "note": "(stereo not shown) [CBK282071]", "viability at 28.5 h, 10 µM": 102},
      {"smiles": "Cc1cc(CNS(=O)(=O)c2c(C)noc2C)no1", "note": "[CBK062261]", "viability at 28.5 h, 10 µM": 91.4},
      {"smiles": "N#Cc1ccc(OCC(=O)Nc2cccnc2-n2cncn2)cc1", "note": "[CBK306004]", "viability at 28.5 h, 10 µM": 85.9},
      {"smiles": "O=C(O)c1cccc(NS(=O)(=O)c2ccc(Cl)c(C(=O)Nc3ccc(Br)cc3)c2)c1", "note": "[CBK263241]", "viability at 28.5 h, 10 µM": 87},
      {"smiles": "CCc1nc2ccc(C(=O)NCCN3CCNC3=O)cn2c1N(CCN(C)C)CC1CC1", "note": "[CBK145469]", "viability at 28.5 h, 10 µM": 89.2},
      {"smiles": "CCOc1ccccc1N1CCN(C(=O)c2cc(-c3ccccc3C)nc3ccccc23)CC1", "note": "[CBK091950]", "viability at 28.5 h, 10 µM": 104},
      {"smiles": "COC(=O)CCCC(=O)n1c(=O)n(CC2CCCCC2)c2ccccc21", "note": "[CBK106524]", "viability at 28.5 h, 10 µM": 112},
      {"smiles": "O=C(O)COc1ccccc1/C=N\\N1CCN(c2ccccn2)CC1", "note": "[CBK262916]", "viability at 28.5 h, 10 µM": 95.9},
      {"smiles": "COc1ccc(CN2CCCc3c(C)nc(C4CCCN(C(=O)C5CCC5)C4)nc32)cc1", "note": "(stereo not shown) [CBK286117]", "viability at 28.5 h, 10 µM": 95.1},
      {"smiles": "O=C(Nc1ccc(CCO)cc1)c1cnc(-c2ccc(Cl)cc2)c(-c2ccco2)c1", "note": "[CBK037457]", "viability at 28.5 h, 10 µM": 97.5},
      {"smiles": "C/C(=N\\NC(=O)CCc1c(C)n[nH]c1C)c1ccc(N)cc1", "note": "[CBK262935]", "viability at 28.5 h, 10 µM": 97.7},
      {"smiles": "O=[N+]([O-])c1ccccc1NC1OCC(O)C(O)C1O", "note": "(stereo not shown) [CBK262032]", "viability at 28.5 h, 10 µM": 90.3},
      {"smiles": "CCc1nnc(NC(=O)c2cc(OC)c(OC)c(OC)c2)s1", "note": "[CBK058342]", "viability at 28.5 h, 10 µM": 93.1},
      {"smiles": "Cc1nc(O)cc(C2CCN(C(=O)c3csc4c3CCCC4)CC2)n1", "note": "[CBK307618]", "viability at 28.5 h, 10 µM": 104},
      {"smiles": "CC1CCN(c2ccc(C(=O)CCCO)cc2)CC1", "note": "[CBK010358]", "viability at 28.5 h, 10 µM": 91.8},
      {"smiles": "Cc1nnc(NS(=O)(=O)c2ccc(OC(F)(F)F)cc2)s1", "note": "[CBK026673]", "viability at 28.5 h, 10 µM": 95.9},
      {"smiles": "Cc1n[nH]c(C)c1Sc1ccccc1/N=C/c1ccc(C(=O)O)cc1", "note": "[CBK262055]", "viability at 28.5 h, 10 µM": 86.9},
      {"smiles": "Cc1ccc(-c2cc(CC3(C(=O)NC4CC4)CCOCC3)on2)cc1", "note": "[CBK284946]", "viability at 28.5 h, 10 µM": 99.7},
      {"smiles": "COC(=O)Cn1cnc2sc(C(=O)Nc3ccccc3OC)c(C)c2c1=O", "note": "[CBK071808]", "viability at 28.5 h, 10 µM": 109},
      {"smiles": "CN(C)c1ccc(C(=O)N2C3CCC2CC(O)(c2ccco2)C3)cc1", "note": "(stereo not shown) [CBK284117]", "viability at 28.5 h, 10 µM": 93.3},
      {"smiles": "CC(C)(C)c1nn(CC2CCCCC2)c(=N)s1", "note": "[CBK075042]", "viability at 28.5 h, 10 µM": 96.2},
      {"smiles": "CSCCCNC(=O)c1cnn2c(C)c(Cc3ccccc3C)c(C)nc12", "note": "[CBK162028]", "viability at 28.5 h, 10 µM": 96.7}
    ]},
    {"experiment": "in vitro", "conditions": "human, hela cells, % viability, bulk resorufin, single well", "units": {"viability at 28.5 h, 10 µM": "%"}, "values": [
      {"smiles": "Cc1ccc(OP(=O)(NCCN2CCOCC2)Oc2ccc(C)cc2)cc1", "note": "[CBK261802]", "viability at 28.5 h, 10 µM": 107}
    ]}
  ]
}
